In patent US7700277B2, “Use of polymorphisms in human OATP-C associated with an effect on statin pharmacokinetics in humans in statin therapy” (AstraZeneca AB, priority 2003, dated 2010):
Positions count from the first letter of the chain named.

Assays:
[1] = target: T1, OATP-C (Homo sapiens, UniProt Q9Y6L6); conditions: literature reports (Brown 2001, in vitro; Hsiang 1999); cited from earlier work
T1 sequence (Q9Y6L6 1-691): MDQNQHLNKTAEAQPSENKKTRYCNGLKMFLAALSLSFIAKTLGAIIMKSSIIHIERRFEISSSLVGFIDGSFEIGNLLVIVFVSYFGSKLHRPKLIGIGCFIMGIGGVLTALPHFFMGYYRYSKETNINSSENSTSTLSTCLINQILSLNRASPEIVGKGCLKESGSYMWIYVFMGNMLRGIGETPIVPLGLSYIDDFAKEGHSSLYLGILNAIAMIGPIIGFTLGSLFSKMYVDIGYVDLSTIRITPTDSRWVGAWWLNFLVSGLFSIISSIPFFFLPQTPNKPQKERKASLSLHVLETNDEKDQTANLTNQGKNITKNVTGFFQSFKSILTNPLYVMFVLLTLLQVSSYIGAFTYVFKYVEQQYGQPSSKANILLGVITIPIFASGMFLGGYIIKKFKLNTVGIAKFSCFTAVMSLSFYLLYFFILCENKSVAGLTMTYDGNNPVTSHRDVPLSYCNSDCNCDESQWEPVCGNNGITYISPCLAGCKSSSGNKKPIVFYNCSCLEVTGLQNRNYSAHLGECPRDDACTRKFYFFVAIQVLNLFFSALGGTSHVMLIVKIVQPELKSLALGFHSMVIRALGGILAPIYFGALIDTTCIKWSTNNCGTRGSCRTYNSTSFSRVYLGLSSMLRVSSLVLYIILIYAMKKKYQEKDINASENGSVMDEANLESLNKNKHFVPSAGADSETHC

[2] = target: T2, OATP-C (Homo sapiens, UniProt Q9Y6L6, N130D/V174A); conditions: Japanese healthy volunteers; Nishizato 2003; cited from earlier work
T2 construct: host or cells: human volunteers (in vivo)
T2 sequence (Q9Y6L6 1-691 N130D/V174A): T1 sequence (Q9Y6L6 1-691) with N130D, V174A

[3] = test system: OATP-C; conditions: cohort of healthy volunteers; Niemi 2004; cited from earlier work
[4] = test system: OATP-C; assay: Dose-normalised plasma rosuvastatin concentrations by OATP-C genotype/haplotype in patients treated for 6 weeks; assay type: in vivo, human
Description: In brief, the OATP-C gene was sequenced in 79 human clinical trial subjects. 52 of these patients had received rosuvastatin for at least 6 weeks for dislipidaemic disease and had plasma PK measurements taken after 6 weeks of treatment.
The promoter, exons and 3′ untranslated regions of OATP-C were fully sequenced by DNA terminator sequencing in DNA collected from 79 subjects in clinical trials. Sequencing traces were used to record the genotypes for known (i.e. available in the literature or SNP databases) SNPs in OATP-C. Some novel SNPs were found in the promoter and 3′UTR region of OATP-C.
Mean dose-normalised plasma rosuvastatin concentrations were determined for the genotypes for each polymorphic variant in the OATP-C gene. OATP-C genotype data for 3 SNPs, namely amino acid position 130 Asparagine→Aspartic acid (Asn130Asp), 155 Proline→Threonine (Pro 155Thr) and 174 Valine→Alanine (Val174Ala), was utilised to determine the haplotype pair for each subject. Mean dose-normalised plasma rosuvastatin concentrations were determined for the subjects grouped by haplotype pair.
All consenting subjects treated with rosuvastatin (n=271), from the 2 clinical trials including the original 52 patients, were subsequently genotyped, using TaqMan™, for OATP-C variants. Data for SNPs causing the N130D, P155T and V174A variants were utilised to assign OATPC haplotype pairs to each subject, as previously described.

CC[C@H](C)C(=O)O[C@H]1C[C@H](O)C=C2C=C[C@H](C)[C@H](CC[C@@H](O)C[C@@H](O)CC(=O)O)[C@H]21 [pravastatin]
substrate / transport by OATP-C [1]: actively transported | effect of OATPC*15 allele (N130D and V174A) on pharmacokinetics [2]: had an effect | correlation between PK and a haplotype containing a promoter SNP [3]: significant correlation

CC(C)c1nc(N(C)S(C)(=O)=O)nc(-c2ccc(F)cc2)c1/C=C/[C@@H](O)C[C@@H](O)CC(=O)O [rosuvastatin]
substrate / transport by OATP-C [1]: substrate for OATP-C | dose-normalised plasma rosuvastatin values, 174Ala variant vs wild type ([4]; FIG. 1, 52 subjects, Val174Ala heterozygote vs wild-type homozygote, after 6 weeks of treatment): higher plasma concentrations | dose-normalised plasma rosuvastatin values, OATP-C*15 haplotype vs other haplotypes ([4]; FIG. 2, haplotype pairs, after 6 weeks of treatment): higher plasma concentrations | mean plasma rosuvastatin levels (dose normalised), Val174Ala heterozygous vs Val/Val ([4]; FIG. 3, patients treated 6 weeks with different doses, most evident at higher doses): higher | mean plasma rosuvastatin concentrations, az0005537 (-118A>C) A/C heterozygous vs A/A ([4]; FIG. 4, two independent phase III studies): trend for an increase | mean plasma rosuvastatin concentrations, 174A variant with az0005537 C allele vs az0005537 A allele ([4]; FIG. 5, combined 2 phase III studies, V174A heterozygotes stratified by promoter genotype): tendency for higher mean plasma rosuvastatin concentrations | effect of OATP-C variants N130D and P155T on pharmacokinetic disposition ([4]; patients, dose-normalised plasma levels): do not appear to affect
